Laboratory results as given in patent US10703756B2, “Pyrrolo[2,3-D]pyrimidinyl, pyrrolo[2,3-B]pyrazinyl, pyrrolo[2,3-B]pyridinyl acrylamides and epoxides thereof” (Pfizer Inc., priority 2015, dated 2020).

How the values were obtained:
[1] = system: IL-15 induced P-STAT5 in human PBMC; test: PBMC IL-15 Induced P-STAT5; format: cell-based; conditions: human PBMC, IL-15 final 41 ng/mL; read-out: PBMC IL15_pSTAT5_IC50
Method in brief: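 Thawed human PBMC, rested in human plasma, were preincubated 15 min at 37 °C with compound (0.2% DMSO), then stimulated 15 min with IL-15 at 41 ng/mL final. After paraformaldehyde fixation and methanol permeabilisation, Alexa Fluor 647 anti-STAT5 staining overnight at 4 °C was analysed by flow cytometry on total lymphocytes.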

JAK3 enzyme [2] = target: T1, JAK3 enzyme (Homo sapiens, UniProt P52333); test: JAK Caliper Enzyme Assay at 1 mM ATP; format: biochemical
T1 sequence (P52333 1-1124): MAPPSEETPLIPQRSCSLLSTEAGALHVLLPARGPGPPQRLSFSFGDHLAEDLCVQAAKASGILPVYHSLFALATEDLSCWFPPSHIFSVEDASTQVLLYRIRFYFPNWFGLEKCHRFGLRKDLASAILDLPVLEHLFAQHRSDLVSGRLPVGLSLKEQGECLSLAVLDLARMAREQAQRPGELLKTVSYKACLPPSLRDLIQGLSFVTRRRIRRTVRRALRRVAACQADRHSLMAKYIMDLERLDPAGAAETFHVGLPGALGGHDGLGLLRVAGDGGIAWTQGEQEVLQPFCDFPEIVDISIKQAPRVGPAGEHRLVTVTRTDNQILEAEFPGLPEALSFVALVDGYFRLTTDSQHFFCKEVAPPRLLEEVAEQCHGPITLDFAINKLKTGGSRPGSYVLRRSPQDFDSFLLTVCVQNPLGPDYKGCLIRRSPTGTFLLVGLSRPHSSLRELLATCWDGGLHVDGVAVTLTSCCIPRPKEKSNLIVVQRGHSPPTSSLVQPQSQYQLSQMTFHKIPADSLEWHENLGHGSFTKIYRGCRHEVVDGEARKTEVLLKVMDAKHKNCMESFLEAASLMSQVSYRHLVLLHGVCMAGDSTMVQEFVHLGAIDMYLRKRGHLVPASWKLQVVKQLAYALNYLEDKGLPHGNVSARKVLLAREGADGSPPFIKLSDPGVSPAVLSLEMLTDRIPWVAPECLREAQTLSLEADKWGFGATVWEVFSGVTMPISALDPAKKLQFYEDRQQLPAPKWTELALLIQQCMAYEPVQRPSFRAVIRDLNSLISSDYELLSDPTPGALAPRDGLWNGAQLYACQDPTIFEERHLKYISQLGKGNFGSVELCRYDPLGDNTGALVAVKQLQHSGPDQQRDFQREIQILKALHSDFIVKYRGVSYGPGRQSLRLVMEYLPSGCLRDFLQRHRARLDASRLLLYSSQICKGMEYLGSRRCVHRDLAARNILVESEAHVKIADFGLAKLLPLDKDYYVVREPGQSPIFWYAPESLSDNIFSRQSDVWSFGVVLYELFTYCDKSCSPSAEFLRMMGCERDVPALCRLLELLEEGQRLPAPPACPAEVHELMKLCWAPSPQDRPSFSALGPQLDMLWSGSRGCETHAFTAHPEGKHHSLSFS
Method in brief: (§1)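 11-pt ½-log cpd titration in DMSO (top 600 μM, pre-assay); enzyme conc/incubation adjusted per prep → 20-30% peptide phosphorylation; phospho vs non-phospho peptide read by chip-based electrophoretic separation.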

JAK3 enzyme [3] = target: T1, JAK3 enzyme; test: JAK Caliper Enzyme Assay at 4 μM ATP; format: biochemical
Method in brief: as §1

[4] = system: IL-15 induced STAT5 phosphorylation in human whole blood lymphocytes; test: HWB IL-15 Induced STAT5 Phosphorylation Assay; format: cell-based; conditions: Lymphocyte, IL-15 final 50 ng/ml, read-out: HWB_IL15 pSTAT5 IC50
Method: HWB IL-15 Induced STAT5 Phosphorylation Assay
After serial dilution of the test compounds 1:2 in DMSO at desired concentration (500× of final), the compounds were further diluted in PBS (by adding 4 μL compound/DMSO in 96 μL PBS, [DMSO]=4%, 20× final). To 96-well polypropylene plates were added 90 μl HWB (heparin treated Human Whole Blood)/well, followed by 5 μl/well 4% DMSO in D-PBS or various concentrations of 20× inhibitor in 4% DMSO in D-PBS (w/o Ca^+2 or Mg^+2) to give 1× in 0.2% DMSO. After mixing and incubating for 45 minutes at 37° C., 5 μl D-PBS (unstimulated control) or 20× stocks of 5 μl human IL-15 (final concentration is 50 ng/ml) were added, and mixed three times. After incubating 15 minutes at 37° C., 1× Lyse/Fix Buffer (BD Phosflow 5× Lyse/Fix Buffer) was added to all wells at 1000 μl/well, then incubated for 20 minutes at 37° C. and spun 5 mins at 1200 rpm. After washing in 1000 μl FACS buffer 1× and spinning for 5 mins at 1200 rpm, 400 μl ice cold Perm Buffer III were added to each well. After mixing gently (1-2×) and incubating on ice for 30 minutes, spinning for 5 mins at 1200 rpm without interruption, and washing 1× in cold […] FACS buffer (D-PBS containing 0.1% BSA and 0.1% sodium azide) 250 μl/well of the desired AlexaFluor647-conjugated anti-phospho STATS antibody at 1:125 dilution in FACS buffer was added. Following incubating at 4° C. over night, all the samples were transferred to 96-well polypropylene U-bottom plate, and checked by flow cytometry gated on total lymphocytes.

**Q.** With C=CC(=O)N1CCN(c2cnc3[nH]cc(C(=O)NCC(C)(C)C)c3n2)CC1 [Example 304, 2-(4-acryloylpiperazin-1-yl)-N-(2,2-dimethylpropyl)-5H-pyrrolo[2,3-b]pyrazine-7-carboxamide] as the compound, how does the IC50 [1] read?
**A.** The IC50 was 96.8 nM.

**Q.** What about the IC50 (JAK3 enzyme [2]) of the same compound?
**A.** The IC50 was 29 nM.

**Q.** And the IC50 (JAK3 enzyme [3])?
**A.** Its IC50 is 0.194 nM.

**Q.** What about the IC50 [4] of the same compound?
**A.** Its IC50 is 524 nM.

**Q.** Which IC50 [1] does the source give for C=CC(=O)N1CC[C@H](Nc2cnc3[nH]cc(C(=O)NCCC(F)(F)F)c3n2)[C@H](OC)C1 [Example 305, 2-{[(3R,4S)-1-acryloyl-3-methoxypiperidin-4-yl]amino}-N-(3,3,3-trifluoropropyl)-5H-pyrrolo[2,3-b]pyrazine-7-carboxamide] here?
**A.** The IC50 was 278 nM.

**Q.** What about the IC50 (JAK3 enzyme [2]) of the same compound?
**A.** Its IC50 is 53 nM.

**Q.** What about the IC50 (JAK3 enzyme [3]) of the same compound?
**A.** Its IC50 is 0.496 nM.

**Q.** What about the IC50 [4] of the same compound?
**A.** The IC50 was 6380 nM.

**Q.** With C=CC(=O)N1CC[C@@H](Nc2cnc3[nH]cc(C(=O)NCCCC(F)(F)F)c3n2)[C@@H](OC)C1 [Example 308, 2-{[(3S,4R)-1-acryloyl-3-methoxypiperidin-4-yl]amino}-N-(4,4,4-trifluorobutyl)-5H-pyrrolo[2,3-b]pyrazine-7-carboxamide] as the compound, how does the IC50 [1] read?
**A.** Its IC50 is 306 nM.

**Q.** What about the IC50 (JAK3 enzyme [2]) of the same compound?
**A.** The IC50 was 48 nM.

**Q.** What about the IC50 (JAK3 enzyme [3]) of the same compound?
**A.** The IC50 was 0.531 nM.

**Q.** What about the IC50 [4] of the same compound?
**A.** The IC50 was 775 nM.

**Q.** For C=CC(=O)N1CC[C@@H](Nc2cnc3[nH]cc(C(=O)N[C@@H](C)COC)c3n2)[C@@H](OC)C1 [Example 312, 2-{[(3S,4R)-1-acryloyl-3-methoxypiperidin-4-yl]amino}-N-[(2S)-1-methoxypropan-2-yl]-5H-pyrrolo[2,3-b]pyrazine-7-carboxamide], which IC50 [1] is on record?
**A.** Its IC50 is 310 nM.

**Q.** And the IC50 (JAK3 enzyme [2])?
**A.** The IC50 was 56 nM.

**Q.** And the IC50 (JAK3 enzyme [3])?
**A.** Its IC50 is 1.05 nM.

**Q.** What about the IC50 [4] of the same compound?
**A.** The IC50 was 704 nM.

**Q.** Which IC50 [1] does the source give for C=CC(=O)N1CC[C@@H](Nc2cnc3[nH]cc(C(=O)NCC4CCCC4)c3n2)[C@@H](OC)C1 [Example 313, 2-{[(3S,4R)-1-acryloyl-3-methoxypiperidin-4-yl]amino}-N-(cyclopentylmethyl)-5H-pyrrolo[2,3-b]pyrazine-7-carboxamide] here?
**A.** The IC50 was 243 nM.

**Q.** What about the IC50 (JAK3 enzyme [2]) of the same compound?
**A.** The IC50 was 46 nM.

**Q.** What about the IC50 (JAK3 enzyme [3]) of the same compound?
**A.** The IC50 was 0.736 nM.

**Q.** What about the IC50 [4] of the same compound?
**A.** The IC50 was 986 nM.

**Q.** How did the IC50 [1] turn out when C=CC(=O)N1CCN(c2cnc3[nH]cc(C(=O)N[C@H](CC)CC#N)c3n2)CC1 [Example 315, 2-(4-acryloylpiperazin-1-yl)-N-[(2R)-1-cyanobutan-2-yl]-5H-pyrrolo[2,3-b]pyrazine-7-carboxamide] was run?
**A.** The IC50 was 74.9 nM.

**Q.** And the IC50 (JAK3 enzyme [2])?
**A.** The IC50 was 26 nM.

**Q.** And the IC50 (JAK3 enzyme [3])?
**A.** Its IC50 is 0.348 nM.

**Q.** What about the IC50 [4] of the same compound?
**A.** The IC50 was 211 nM.

**Q.** Which results are given for C=CC(=O)N1CC[C@@H](Nc2cnc3[nH]cc(C(=O)N[C@@H]4C[C@H]4C(F)(F)F)c3n2)[C@@H](OC)C1 [Example 316, 2-{[(3S,4R)-1-acryloyl-3-methoxypiperidin-4-yl]amino}-N-[(1R,2R)-2-(trifluoromethyl)cyclopropyl]-5H-pyrrolo[2,3-b]pyrazine-7-carboxamide]?
**A.** IC50 [1]: 294 nM; IC50 (JAK3 enzyme [2]): 129 nM; IC50 (JAK3 enzyme [3]): 0.643 nM; IC50 [4]: 1450 nM

**Q.** C=CC(=O)N1CC[C@@H](Nc2cnc3[nH]cc(C(=O)NCC(F)(F)F)c3n2)[C@@H](OC)C1 [Example 317, 2-{[(3S,4R)-1-acryloyl-3-methoxypiperidin-4-yl]amino}-N-(2,2,2-trifluoroethyl)-5H-pyrrolo[2,3-b]pyrazine-7-carboxamide] was tested. Which IC50 [1] did it give?
**A.** The IC50 was 315 nM.

**Q.** What about the IC50 (JAK3 enzyme [2]) of the same compound?
**A.** The IC50 was 77 nM.

**Q.** What about the IC50 (JAK3 enzyme [3]) of the same compound?
**A.** The IC50 was 0.979 nM.

**Q.** And the IC50 [4]?
**A.** Its IC50 is 835 nM.

**Q.** What does the source list for C=CC(=O)N1CCN(c2cnc3[nH]cc(C(=O)N[C@H](CC)CC#N)c3n2)CC1(C)C [Example 318, 2-(4-acryloyl-3,3-dimethylpiperazin-1-yl)-N-[(2R)-1-cyanobutan-2-yl]-5H-pyrrolo[2,3-b]pyrazine-7-carboxamide]?
**A.** IC50 [1]: 214 nM; IC50 (JAK3 enzyme [2]): 59 nM; IC50 (JAK3 enzyme [3]): 0.535 nM; IC50 [4]: 1760 nM

**Q.** Which IC50 [1] does the source give for C=CC(=O)N1CCN(c2cnc3[nH]cc(C(=O)NCCC(F)(F)F)c3n2)C[C@@H]1CC(C)C [Example 329, 2-[(3S)-4-acryloyl-3-(2-methylpropyl)piperazin-1-yl]-N-(3,3,3-trifluoropropyl)-5H-pyrrolo[2,3-b]pyrazine-7-carboxamide] here?
**A.** Its IC50 is 247 nM.

**Q.** And the IC50 (JAK3 enzyme [2])?
**A.** Its IC50 is 60 nM.

**Q.** And the IC50 (JAK3 enzyme [3])?
**A.** The IC50 was 0.587 nM.

**Q.** What about the IC50 [4] of the same compound?
**A.** The IC50 was 6290 nM.

**Q.** For C=CC(=O)N1CCN(c2cnc3[nH]cc(C(=O)NCC(C)(C)C)c3n2)C[C@@H]1CC(C)C [Example 330, 2-[(3S)-4-acryloyl-3-(2-methylpropyl)piperazin-1-yl]-N-(2,2-dimethylpropyl)-5H-pyrrolo[2,3-b]pyrazine-7-carboxamide], which IC50 [1] is on record?
**A.** Its IC50 is 122 nM.

**Q.** What about the IC50 (JAK3 enzyme [2]) of the same compound?
**A.** The IC50 was 45 nM.

**Q.** And the IC50 (JAK3 enzyme [3])?
**A.** Its IC50 is 0.287 nM.

**Q.** What about the IC50 [4] of the same compound?
**A.** The IC50 was 1970 nM.

**Q.** What does the source list for C=CC(=O)N1CCN(c2cnc3[nH]cc(C(=O)NC4CCCC4)c3n2)CC1(C)C [Example 334, 2-(4-acryloyl-3,3-dimethylpiperazin-1-yl)-N-cyclopentyl-5H-pyrrolo[2,3-b]pyrazine-7-carboxamide]?
**A.** IC50 [1]: 73.6 nM; IC50 (JAK3 enzyme [2]): 93 nM; IC50 (JAK3 enzyme [3]): 0.703 nM; IC50 [4]: 3920 nM

**Q.** Which IC50 [1] does the source give for C=CC(=O)N1CCN(c2cnc3[nH]cc(C(=O)NC[C@H](C)CC(F)(F)F)c3n2)CC1 [Example 336, 2-(4-acryloylpiperazin-1-yl)-N-[(2R)-4,4,4-trifluoro-2-methylbutyl]-5H-pyrrolo[2,3-b]pyrazine-7-carboxamide] here?
**A.** Its IC50 is 107 nM.

**Q.** And the IC50 (JAK3 enzyme [2])?
**A.** Its IC50 is 26 nM.

**Q.** And the IC50 (JAK3 enzyme [3])?
**A.** The IC50 was 0.24 nM.

**Q.** What about the IC50 [4] of the same compound?
**A.** Its IC50 is 373 nM.
